Laboratory results published in patent US20250057859A1, “CANNABICHROMENEQUINONE AND ANALOGUES THEREOF, AND METHOD OF USING COMPOSITIONS THEREOF AS ANTI-INFLAMMATORY AGENTS” (Juva Life, Inc., priority 2021, published 2025).
Like-named read-outs stand apart in the source and are kept apart here.

Experiments:
IL-1β = assay: Inhibitory activity on IL-1β
recombinant human LOX-5 = biological target: T1, recombinant human LOX-5 (Homo sapiens, UniProt P09917); assay: Biochemical LOX-5 assay
T1 construct: expressed in insect cells (Amino Acids 1-674) was obtained from Cayman; purchased Cayman 60402; host or cells: insect cells
T1 sequence (P09917 1-674): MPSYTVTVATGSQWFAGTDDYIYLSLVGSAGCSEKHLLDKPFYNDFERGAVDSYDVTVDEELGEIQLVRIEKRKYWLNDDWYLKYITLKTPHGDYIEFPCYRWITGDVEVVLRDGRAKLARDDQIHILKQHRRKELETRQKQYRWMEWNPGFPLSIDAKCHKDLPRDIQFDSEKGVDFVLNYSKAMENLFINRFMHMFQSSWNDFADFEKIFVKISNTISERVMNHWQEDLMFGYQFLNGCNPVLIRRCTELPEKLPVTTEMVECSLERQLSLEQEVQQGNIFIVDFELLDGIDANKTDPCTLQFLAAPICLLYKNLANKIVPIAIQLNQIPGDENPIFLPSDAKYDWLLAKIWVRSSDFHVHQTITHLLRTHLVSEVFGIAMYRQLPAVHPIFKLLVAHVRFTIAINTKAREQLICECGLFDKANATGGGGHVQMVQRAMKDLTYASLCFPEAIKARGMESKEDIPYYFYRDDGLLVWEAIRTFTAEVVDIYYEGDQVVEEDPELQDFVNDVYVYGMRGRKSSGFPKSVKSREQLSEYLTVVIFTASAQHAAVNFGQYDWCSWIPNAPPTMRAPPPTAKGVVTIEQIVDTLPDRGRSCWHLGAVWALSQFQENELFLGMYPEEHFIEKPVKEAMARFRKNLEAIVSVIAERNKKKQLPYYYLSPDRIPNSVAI
Source text: • Active recombinant human LOX-5 protein expressed in insect cells (Amino Acids 1-674) was obtained from Cayman (Cat #60402) • 2′,7′-dichlorodihydrofluorescein diacetate, H2DCFDA, was obtained from Sigma (Cat #96883) • Arachidonic acid, AA, was obtained from Sigma (Cat #A3611) • Other reagents: black 384 well assay plates were obtained from Corning (Cat #3820). • Equipment: Synergy Neo2 Multi-mode plate reader (Biotek), Labcyte 550 acoustic dispenser (Labcyte), Biomek FX robotic dispenser (Beckman Coulter), Sorvall Legend RT centrifuge (Kendro).
The LOX-5 assay was performed in assay buffer comprising: 50 mM Tris (pH 7.5), 2 mM EDTA, 2 mM CaCl2, 3 uM AA, 10 uM ATP, 10 uM H2DCFDA, and recombinant enzyme (50mU per 20 ul reaction, as defined by manufacturer). Serially diluted compounds were prepared in DMSO in Echo qualified 384 well plates. An assay buffer was then prepared without AA and ATP supplemented with 20 uM H2DCFDA. 10 μL of the supplemented buffer was dispensed into control (no enzyme) wells in the black 384well assay plate. Next, a 2× enzyme solution was prepared, comprising 100 mU LOX-5 enzyme in the supplemented assay buffer. 10 uL of the 2× enzyme solution was then dispensed into test wells in the black 384well assay plate. Serially diluted compounds were added to the assay plate by acoustic dispensing (Labcyte 550). Control wells received DMSO only.
Next, the 2× substrate was prepared to comprise 6 uM arachidonic acid and 20 uM ATP in the assay buffer. 10 μL of the 2× substrate was then added to all wells in the assay plate. The plate was incubated for 20 min. The plate was read on Synergy Neo2 in fluorescence mode: excitation 485 nm, emission 530 nm. % inhibition and the resulting IC50 was calculated for the compound using the following equation:
[formula] • where RFU100% is fluorescence in control samples without compound, RFU0% is fluorescence in control samples without LOX-5, and RFUcompound fluorescence in a sample with compound.
(§1) The calculated %-Inh values were plotted against compound concentration. To determine IC50 values, dose-response curves were fitted by a 4-parameter sigmoid inhibition model using XLFit® software (IDBS).

IFN gamma = IFN gamma secretion assay in human PBMCs (PHA-M-stimulated, ELISA); assay type: cell-based; details: PBMC, PHA-M 10 ug/mL 40 hr, read-out: IFNγ inhibitory activity IC50
Description: Fetal bovine serum (FBS) was obtained from ThermoFisher (Cat #16000044). • Other reagents: 96well TC plates were obtained from ThermoFisher (Cat #07-2000-90).
IFN-gamma was assessed using a standard ELISA protocol. Cryopreserved PBMCs were thawed in a water bath and transferred to 50 mL polypropylene tubes. The cells were washed two times with 25 mL of RPMI medium supplemented with 5% of regular FBS and re-suspended at a density of 1.5^10^6 cells/mL. The cells were plated into 96 well TC late (100 uL/well). Serially diluted compound was added to the cells in duplicate wells for each concentration. Control wells received DMSO only (0.3% final). The cells were pre-incubated with compound for 2 hr. After pre-incubation, the cells were stimulated by PHA-M (10 ug/mL) for 40 hr. Control samples with and without PHA-M in the absence of compound were assembled in each test plate. IFNg was detected in media supernatants by using a sandwich anti-IFNg ELISA kit (BD Biosciences) according to protocol provided by the manufacturer. ELISA readout (optical density at 450 nm) is commensurable with the amount of IFNg produced by the cells. Assay window was determined in each experiment by comparing average OD450 values in stimulated and un-stimulated samples in the absence of compound. ELISA calibration was performed in each detection plate using serially diluted recombinant human IFN gamma, to ensure that OD450 values for all test samples were within linear range of detection.%-Inhibition by compound was calculated using following equation:
[formula] • where OD450100% is optical density in control samples stimulated with PHA-M without compound, OD4500% is optical density in unstimulated control samples, and OD450compound is optical density in a sample stimulated with PHA-M in the presence of compound.
as §1

[1] = recombinant enzyme, 3 uM AA, read-out: 5-Lox inhibitory activity IC50

Compound	IC50 (IL-1β) [nM]	IC50 (recombinant human LOX-5; [1]) [nM]	IC50 (IFN gamma) [nM]	IC50 (recombinant human LOX-5) [nM]
CCCCCC1=C(NCCC)C(=O)C2=C(OC(C)(CCC=C(C)C)C=C2)C1=O (stereo not drawn) [Formula XXV]	> 10000	1180	> 10000	–
CC(C)=CCCC1(C)C=CC2=C(O1)C(=O)c1ccccc1C2=O (stereo not drawn) [Formula XXVII]	> 10000	–	> 10000	> 10000
CCCCCc1cc(OC)c2c(c1OC)OC(C)(CCC=C(C)C)C=C2 (stereo not drawn) [Formula XXIV]	> 10000	> 10000	4200	–
CCCCCc1cc(OC(C)=O)c2c(c1OC(C)=O)OC(C)(CCC=C(C)C)C=C2 (stereo not drawn) [Formula XXIII]	970	2710	480	–
CCCCCC1=CC(=O)C2=C(O[C@](C)(CCC=C(C)C)C=C2)C1=O [Formula XXVI]	540	230	310	–
CCCCCC1=CC(=O)C2=C(OC(C)(CCC=C(C)C)C=C2)C1=O (stereo not drawn) [Formula II]	1720	270	390	–
CCCCCc1cc(O)c2c(c1O)OC(C)(CCC=C(C)C)C=C2 (stereo not drawn) [Formula XXII]	3300	250	1970	–
CCCCCC1=C(NCC)C(=O)C2=C(OC(C)(CCC=C(C)C)C=C2)C1=O (stereo not drawn) [Formula XXVIII]	> 10000	> 10000	> 10000	–
